According to patent US20240376108A1, “SALT AND CRYSTAL FORM OF PYRAZOLE-CONTAINING POLYCYCLIC DERIVATIVE, AND PREPARATION METHOD THEREFOR AND USE THEREOF” (Shanghai Hansoh Biomedical Co., Ltd., priority 2021, published 2024):
Values after ≈ are worked out from the molar mass of the structure shown. Values belong to the molecule of their own block, whether it stands above or below them.

Legend:
Format in all cases: physicochemical
[1] = Screening of the salt form and of the crystal form of the salt; conditions: 40 to 50° C., stirred overnight
Method: 2.1 Screening of the salt form of the compound
2.1.1 Experimental objective: To screen the salt form of the compound.
Salt forming by solventing out or suspension: 10 mg of compound 2-(2-cyano-5-oxo-8-(trifluoromethyl)pyrazolo[1,5-a]pyrido[3,2-e]pyrimidin-4(5H)-yl)-N-(5-fluoropyridin-2-yl)acetamide was weighed, to which 200 μL to 400 μL of solvent was added. The solution was stirred at 40 to 50° C., to which different acids were added respectively. The solution was stirred overnight, cooled to room temperature, filtered, and dried to obtain the salt of the compound.
3.1 Study on the crystal form of the salt of 2-(2-cyano-5-oxo-8-(trifluoromethyl)pyrazolo[1,5-a]pyrido[3,2-e]pyrimidin-4(5H)-yl)-N-(5-fluoropyridin-2-yl)acetamide
3.1.1 Experimental objective: To screen the salt of compound 2-(2-cyano-5-oxo-8-(trifluoromethyl)pyrazolo[1,5-a]pyrido[3,2-e]pyrimidin-4(5H)-yl)-N-(5-fluoropyridin-2-yl)acetamide that can form a crystal form.
2) Operating procedures: Salt forming by solventing out or suspension: 10 mg of the compound was weighed, to which 200 μL to 400 μL of solvent was added. The solution was stirred at 40 to 50° C., to which different acids were added respectively. The solution was stirred overnight, cooled to room temperature, filtered, and dried to obtain the salt of the compound.

[2] = Hygroscopicity experiment (DVS); conditions: 25° C.
From the text: 7.1 Hygroscopicity experiment of crystal forms of different salts of compound 2-(2-cyano-5-oxo-8-(trifluoromethyl)pyrazolo[1,5-a]pyrido[3,2-e]pyrimidin-4(5H)-yl)-N-(5-fluoropyridin-2-yl)acetamide
7.1.1 Experimental objective: To investigate the hygroscopicity of crystal forms of different salts of compound 2-(2-cyano-5-oxo-8-(trifluoromethyl)pyrazolo[1,5-a]pyrido[3,2-e]pyrimidin-4(5H)-yl)-N-(5-fluoropyridin-2-yl)acetamide at different relative humidity, so as to provide a basis for storage.
7.1.2 Experimental protocol: Crystal forms of different salts of the compound were placed in saturated water vapor with different relative humidity to achieve dynamic equilibrium between the compound and water vapor, and the percentage of hygroscopic weight gain of the compound after equilibrium was calculated.

[3] = Solubility experiment in different media; conditions: room temperature, 24 hours
Method: The vials were placed on a spin mixer overnight at room temperature. After 24 hours, the sample solution was filtered through a 0.45 μm mixed aqueous fiber membrane. The content of the compound in the filtrate was determined by HPLC. [table]

[4] = solvent Dichloromethane (400 μL)
[5] = solvent Tetrahydrofuran (200 μL)
[6] = Cycle 1, target relative humidity 0.0%
[7] = Cycle 1, target relative humidity 10.0%
[8] = Cycle 1, target relative humidity 20.0%
[9] = Cycle 1, target relative humidity 30.0%
[10] = Cycle 1, target relative humidity 40.0%
[11] = Cycle 1, target relative humidity 50.0%
[12] = Cycle 1, target relative humidity 60.0%
[13] = Cycle 1, target relative humidity 70.0%
[14] = Cycle 1, target relative humidity 80.0%
[15] = Cycle 1, target relative humidity 90.0%
[16] = Cycle 1, target relative humidity 95.0%
[17] = Cycle 2, target relative humidity 0.0%
[18] = Cycle 2, target relative humidity 10.0%
[19] = Cycle 2, target relative humidity 20.0%
[20] = Cycle 2, target relative humidity 30.0%
[21] = Cycle 2, target relative humidity 40.0%
[22] = Cycle 2, target relative humidity 50.0%
[23] = Cycle 2, target relative humidity 60.0%
[24] = Cycle 2, target relative humidity 70.0%
[25] = Cycle 2, target relative humidity 80.0%
[26] = Cycle 2, target relative humidity 90.0%
[27] = Cycle 2, target relative humidity 95.0%

Results (salt forming with acid, 1M in EtOH) ([1]; solvent 2-Butanone (250 μL)): Crystal form
Results (salt forming with acid, 1M in EtOH) ([1]; solvent Acetone (400 μL)): Crystal form
Results (salt forming with acid, 1M in EtOH) [1, 4]: Crystal form
Results (salt forming with acid, 1M in EtOH) ([1]; solvent Methanol (400 μL)): Crystal form
Results (salt forming with acid, 1M in EtOH) [1, 5]: Crystal form
SMILES: CCS(=O)(=O)O [Ethanesulfonic acid]

SMILES: Br [Hydrobromic acid]
Results (salt forming with acid, 1M in EtOH) ([1]; solvent 2-Butanone (250 μL)): Crystal form
Results (salt forming with acid, 1M in EtOH) ([1]; solvent Acetone (400 μL)): Crystal form
Results (salt forming with acid, 1M in EtOH) [1, 4]: Crystal form
Results (salt forming with acid, 1M in EtOH) ([1]; solvent Methanol (400 μL)): Crystal form
Results (salt forming with acid, 1M in EtOH) [1, 5]: Crystal form

SMILES: Cl [Hydrochloric acid]
Results (salt forming with acid, 1M in EtOH) ([1]; solvent 2-Butanone (250 μL)): Crystal form
Results (salt forming with acid, 1M in EtOH) ([1]; solvent Acetone (400 μL)): Crystal form
Results (salt forming with acid, 1M in EtOH) [1, 4]: Crystal form
Results (salt forming with acid, 1M in EtOH) ([1]; solvent Methanol (400 μL)): Crystal form
Results (salt forming with acid, 1M in EtOH) [1, 5]: Crystal form

SMILES: Cl.N#Cc1cc2n(CC(=O)Nc3ccc(F)cn3)c(=O)c3ccc(C(F)(F)F)nc3n2n1 [Hydrochloride (crystal form A), 2-(2-cyano-5-oxo-8-(trifluoromethyl)pyrazolo[1,5-a]pyrido[3,2-e]pyrimidin-4(5H)-yl)-N-(5-fluoropyridin-2-yl)acetamide hydrochloride]
% percentage of mass change, Desorption [2, 6]: −0.041%
% percentage of mass change, Sorption [2, 6]: 0.000%
% percentage of mass change, Desorption [2, 7]: 0.130%
% percentage of mass change, Sorption [2, 7]: 0.131%
% percentage of mass change, Desorption [2, 8]: 0.313%
% percentage of mass change, Sorption [2, 8]: 0.275%
% percentage of mass change, Desorption [2, 9]: 7.258%
% percentage of mass change, Sorption [2, 9]: 4.325%
% percentage of mass change, Desorption [2, 10]: 7.532%
% percentage of mass change, Sorption [2, 10]: 7.346%
% percentage of mass change, Desorption [2, 11]: 7.722%
% percentage of mass change, Sorption [2, 11]: 7.466%
% percentage of mass change, Desorption [2, 12]: 7.825%
% percentage of mass change, Sorption [2, 12]: 7.581%
% percentage of mass change, Desorption [2, 13]: 7.898%
% percentage of mass change, Sorption [2, 13]: 7.709%
% percentage of mass change, Desorption [2, 14]: 7.968%
% percentage of mass change, Sorption [2, 14]: 7.840%
% percentage of mass change, Desorption [2, 15]: 8.071%
% percentage of mass change, Sorption [2, 15]: 8.018%
% percentage of mass change, Desorption [2, 16]: 8.141%
% percentage of mass change, Sorption [2, 16]: 8.141%
% percentage of mass change, Desorption [2, 17]: −0.062%
% percentage of mass change, Sorption [2, 17]: −0.041%
% percentage of mass change, Desorption [2, 18]: 0.098%
% percentage of mass change, Sorption [2, 18]: 0.095%
% percentage of mass change, Desorption [2, 19]: 0.273%
% percentage of mass change, Sorption [2, 19]: 0.236%
% percentage of mass change, Desorption [2, 20]: 7.191%
% percentage of mass change, Sorption [2, 20]: 5.345%
% percentage of mass change, Desorption [2, 21]: 7.462%
% percentage of mass change, Sorption [2, 21]: 7.269%
% percentage of mass change, Desorption [2, 22]: 7.649%
% percentage of mass change, Sorption [2, 22]: 7.383%
% percentage of mass change, Desorption [2, 23]: 7.738%
% percentage of mass change, Sorption [2, 23]: 7.492%
% percentage of mass change, Desorption [2, 24]: 7.806%
% percentage of mass change, Sorption [2, 24]: 7.610%
% percentage of mass change, Desorption [2, 25]: 7.872%
% percentage of mass change, Sorption [2, 25]: 7.745%
% percentage of mass change, Desorption [2, 26]: 7.972%
% percentage of mass change, Sorption [2, 26]: 7.925%
% percentage of mass change, Desorption [2, 27]: 8.047%
% percentage of mass change, Sorption [2, 27]: 8.047%

Results (salt forming with acid, 1M in EtOH) ([1]; solvent 2-Butanone (250 μL)): Crystal form
Results (salt forming with acid, 1M in EtOH) ([1]; solvent Acetone (400 μL)): Crystal form
Results (salt forming with acid, 1M in EtOH) [1, 4]: Crystal form
Results (salt forming with acid, 1M in EtOH) ([1]; solvent Methanol (400 μL)): Crystal form
Results (salt forming with acid, 1M in EtOH) [1, 5]: Crystal form
SMILES: CS(=O)(=O)O [Methanesulfonic acid]

SMILES: O=S(=O)(O)O [Sulfuric acid]
Results (salt forming with acid, 1M in EtOH) ([1]; solvent 2-Butanone (250 μL)): Crystal form
Results (salt forming with acid, 1M in EtOH) ([1]; solvent Acetone (400 μL)): Crystal form
Results (salt forming with acid, 1M in EtOH) [1, 4]: Crystal form
Results (salt forming with acid, 1M in EtOH) ([1]; solvent Methanol (400 μL)): Crystal form
Results (salt forming with acid, 1M in EtOH) [1, 5]: Crystal form

SMILES: N#Cc1cc2n(CC(=O)Nc3ccc(F)cn3)c(=O)c3ccc(C(F)(F)F)nc3n2n1 [crystal form II of the free base, 2-(2-cyano-5-oxo-8-(trifluoromethyl)pyrazolo[1,5-a]pyrido[3,2-e]pyrimidin-4(5H)-yl)-N-(5-fluoropyridin-2-yl)acetamide free base]
Solubility ([3]; FaSSGF): 700 ng/mL (≈ 1.62 µM)
Solubility ([3]; FaSSIF): 1100 ng/mL (≈ 2.55 µM)
Solubility ([3]; FeSSIF): 2500 ng/mL (≈ 5.8 µM)
Solubility ([3]; H2O): 600 ng/mL (≈ 1.39 µM)
Solubility ([3]; USP Buffer pH 1): 600 ng/mL (≈ 1.39 µM)
Solubility ([3]; USP Buffer pH 2): 600 ng/mL (≈ 1.39 µM)
Solubility ([3]; USP Buffer pH 3): 1100 ng/mL (≈ 2.55 µM)
Solubility ([3]; USP Buffer pH 4): 1000 ng/mL (≈ 2.32 µM)
Solubility ([3]; USP Buffer pH 5): 800 ng/mL (≈ 1.85 µM)
Solubility ([3]; USP Buffer pH 6): 600 ng/mL (≈ 1.39 µM)
Solubility ([3]; USP Buffer pH 7): 500 ng/mL (≈ 1.16 µM)
Solubility ([3]; USP Buffer pH 8): 500 ng/mL (≈ 1.16 µM)
